Data published in patent US4824837A, “Novel 1,4-dihydropyridine derivatives, process for preparing the same, and agents for treating disorders of circulatory system” (Suntory Limited, priority 1985, dated 1989).
Like-named read-outs stand apart in the source and are kept apart here.

Key:
[1] = system: vascular resistance of the vertebral artery; experiment: vascular resistance of the vertebral artery in anesthetized dogs; assay type: in vivo; conditions: intravenous injection; for ED30: Canis lupus familiaris, vertebral artery vascular resistance
Description: The pharmacological effect (ED30) of selected 2-chloro-1,4-dihydropyridine derivatives of the present invention with respect to the vascular resistance of the vertebral artery in anesthetized dogs was treated by the following procedures.
Adult dogs of either sex (7-14 kg in body weight) were anesthetized with at first thiopental sodium (35 mg/kg, intraperitoneal), anesthetized with urethane (400 mg/kg, intravenous) and α-chloalose (60 mg/kg, intravenous) and kept under artificial respiration throughout the experiment. After thoracotomy at the left first intercostal space, the vertebral artery was exposed and blood flow was measured with an intracorporeal flow probe connected to an electromagnetic flowmeter (MF-27, Nihon Kohden).
At the same time, continuous measurement of the following parameters was made: systemic blood pressure (mean pressure) at the right femoral artery, the limb lead II ECG, the heart rate with a tachometer triggered by the R wave of ECG, and the vascular resistance determined by loading an electronic divider (EO-601 G, Nihon Kohden) with the mean values of blood pressure and vertebral artery blood flow. All of these parameters were recorded simultaneously on a polygraph (RM-600, Nihon Kohden).
All the test compounds were injected through a cannula inserted into the femoral vein.
The ED30 (μg/kg) values obtained by intravenous injection and the values of T1/2 (min) (the time to reach 50% of the resistance drop) are shown in Table 3, wherein the Compound Numbers are keyed to the Example Numbers.

[2] = system: isolated guinea pig hearts (coronary artery); experiment: coronary vascular dilative effect in isolated guinea pig hearts (Langendorff); set-up: species or system Hartley guinea pigs; conditions: isolated hearts perfused at 37° C., 0.1 ml of diluted solution into the coronary artery
Description: The coronary vascular dilative effect of selected 2-chloro-1,4-dihydropyridine derivatives of the present invention was tested.
Hartley guinea pigs (weight 400-500 g) were killed by a blow on the head and their hearts were immediately isolated. The hearts were perfused with Krebs-Henseleit solution bubbled with a mixture of 95% O2 +5% CO2 and maintained at 37° C. at a constant rate of 6 ml/minute according to Langendorff's method [J. Pharmacol. Methods 2, 143 (1979)]. The perfusion pressure was measured continuously by a pressure transducer. Samples were prepared by emulsifying 1 mg of a test compound in 1 ml of a mixture of dimethylsulfoxide and physiological saline solution (1:9) and diluting with physiological saline solution to the predetermined concentration. 0.1 ml of the diluted solution was administered into the coronary artery via rubber tube connected to an aorta cannula to obtain ED50 (μg/heart) data as shown in Table 2. The numbers of the compounds in the Table correspond respectively to those of the working examples described above.

[3] = system: conscious spontaneously hypertensive rats (SHR); experiment: hypotensive action in conscious spontaneously hypertensive rats (SHR); assay type: in vivo; conditions: 10 mg/kg orally, starved overnight
Description: Selected compounds of the present invention were tested for their hypotensive action in conscious spontaneously hypertensive rats (SHR).
A group of 17 to 20-week old male SHR were anesthetized with ether and a cannula was inserted into the left femoral artery. At least one day after the operation, the cannula was connected to a pressure transducer and the blood pressure was measured continuously under conscious and unrestrained condition, thereby obtaining the data shown in Table 4. Each of the test compounds as a clear suspension in 0.5% CMC-Na was administered orally at a dose of 10 mg/kg (body weight) to each animal which was starved overnight.

[4] = acute toxicity (LD50) in male mice; conditions: mouse, in vivo
Excerpt: The acute toxicity (LD50) data of selected compounds of the present invention as administered to two groups of male mice were obtained and the results are shown in Table 5. One group of mice which received peroral administration had been starved overnight. Each of the test compounds was suspended in 0.5% CMC-Na for peroral administration, or dissolved in dimethyl sulfoxide and diluted with physiological saline solution for intravenous injection.

[5] = iv, male mice, read-out: LD50 i.v.
[6] = po, male mice starved overnight, suspended in 0.5% CMC-Na, read-out: LD50 p.o.

Compound: CCCCCCCOC(=O)C1=C(C)NC(Cl)=C(C(=O)OC)C1c1cccc([N+](=O)[O-])c1 (stereo not drawn) [SUN 5143]
- ED30 [1]: 0.0022 mg/kg
- T1/2 (the time to reach 50% of the resistance drop) [1]: 20.5 min
- ED50 [2]: 0.02 μg/heart

Compound: COC(=O)C1=C(Cl)NC(C)=C(C(=O)OC2CCCN(Cc3ccc(F)cc3)C2)C1c1cccc([N+](=O)[O-])c1 (stereo not drawn) [SUN 5142, 2-Chloro-5-[1-(4-fluorobenzyl)piperidin-3-yl]oxycarbonyl-3-methoxycarbonyl-6-methyl-4-(3-nitrophenyl)-1,4-dihydroppyridine]
- ED30 [1]: 0.0028 mg/kg
- T1/2 (the time to reach 50% of the resistance drop) [1]: > 30 min
- ED50 [2]: 0.03 μg/heart

Compound: COC(=O)C1=C(C)NC(Cl)=C(C(=O)OC)C1c1cccc([N+](=O)[O-])c1 (stereo not drawn) [SUN 4616]
- ED30 [1]: 0.0012 mg/kg

Compound: COC(=O)C1=C(C)NC(C)=C(C(=O)OCCN(C)Cc2ccccc2)C1c1cccc([N+](=O)[O-])c1 (stereo not drawn) [Nicardipine, reference compound]
- Blood pressure drop, Maximum drop [3]: 39%
- Blood pressure drop, 6 hours [3]: 10-20%
- LD50 [4, 5]: 12.2 mg/kg
- LD50 [4, 6]: 455 mg/kg

Compound: COC(=O)C1=C(C)NC(Cl)=C(C(=O)OC)C1c1ccccc1[N+](=O)[O-] (stereo not drawn) [SUN 4671]
- ED30 [1]: 0.00059 mg/kg

Compound: COC(=O)C1=C(Cl)NC(C)=C(C(=O)OCCN2CCN(C(c3ccccc3)c3ccccc3)CC2)C1c1cccc([N+](=O)[O-])c1 (stereo not drawn) [SUN 4752, 5-[2-(4-Benzhydrylpiperazin-1-yl)ethyl]oxycarbonyl-2-chloro-3-methoxycarbonyl-6-methyl-4-(3-nitrophenyl)-1,4-dihydropyridine]
- ED30 [1]: 0.003 mg/kg
- T1/2 (the time to reach 50% of the resistance drop) [1]: > 30 min
- Blood pressure drop, Maximum drop [3]: 35%
- Blood pressure drop, 6 hours [3]: 30%
- LD50 [4, 5]: 23 to 27 mg/kg
- LD50 [4, 6]: 1000 mg/kg

Compound: COC(=O)C1=C(Cl)NC(C)=C(C(=O)OCCN2CCN(C3c4ccccc4-c4ccccc43)CC2)C1c1cccc([N+](=O)[O-])c1 (stereo not drawn) [SUN 5018]
- ED30 [1]: 0.0043 mg/kg
- T1/2 (the time to reach 50% of the resistance drop) [1]: 15.5 min

Compound: COC(=O)C1=C(Cl)NC(C)=C(C(=O)OCCOc2ccccc2)C1c1cccc([N+](=O)[O-])c1 (stereo not drawn) [SUN 5151]
- ED30 [1]: 0.0036 mg/kg
- T1/2 (the time to reach 50% of the resistance drop) [1]: 10.5 min

Compound: COC(=O)C1=C(Cl)NC(C)=C(C(=O)OCCc2cccs2)C1c1cccc([N+](=O)[O-])c1 (stereo not drawn) [SUN 5163]
- ED30 [1]: 0.0093 mg/kg
- T1/2 (the time to reach 50% of the resistance drop) [1]: 14.0 min

Compound: COC(=O)C1=C(Cl)NC(C)=C(C(=O)OC(CN(C)Cc2ccccc2)c2ccccc2)C1c1cccc([N+](=O)[O-])c1 (stereo not drawn) [SUN 5181]
- ED30 [1]: 0.0021 mg/kg

Compound: CCOC(=O)C1=C(Cl)NC(C)=C(C(=O)OCCN2CCOCC2)C1c1ccccc1[N+](=O)[O-] (stereo not drawn) [SUN 5252]
- ED30 [1]: 0.0036 mg/kg

Compound: COC(=O)C1=C(Cl)NC(C)=C(C(=O)OCCN(C)Cc2ccccc2)C1c1cccc([N+](=O)[O-])c1 (stereo not drawn) [SUN 5017]
- ED30 [1]: 0.0033 mg/kg
- T1/2 (the time to reach 50% of the resistance drop) [1]: 17.0 min

Compound: COCCOC(=O)C1=C(C)NC(Cl)=C(C(=O)OC)C1c1cccc([N+](=O)[O-])c1 (stereo not drawn) [SUN 5220]
- ED30 [1]: 0.0058 mg/kg
- T1/2 (the time to reach 50% of the resistance drop) [1]: 13.5 min

Compound: COC(=O)C1=C(Cl)NC(C)=C(C(=O)OCCCCCc2ccccc2)C1c1cccc([N+](=O)[O-])c1 (stereo not drawn) [SUN 5088]
- ED30 [1]: 0.0014 mg/kg
- T1/2 (the time to reach 50% of the resistance drop) [1]: 17.0 min

Compound: COC(=O)C1=C(Cl)NC(C)=C(C(=O)OC(C)C)C1c1cccc([N+](=O)[O-])c1 (stereo not drawn) [SUN 5141]
- ED30 [1]: 0.00028 mg/kg
- T1/2 (the time to reach 50% of the resistance drop) [1]: 10.6 min
- ED50 [2]: 0.05 μg/heart
- Blood pressure drop, Maximum drop [3]: 51%
- Blood pressure drop, 6 hours [3]: 33%
- LD50 [4, 5]: 80 mg/kg

Compound: COC(=O)C1=C(Cl)NC(C)=C(C(=O)OCC2CC2)C1c1cccc([N+](=O)[O-])c1 (stereo not drawn) [SUN 5164]
- ED30 [1]: 0.00022 mg/kg
